From patent US12077503B2, “Substituted cyclic amides and their use as herbicides” (FMC CORPORATION, priority 2015, dated 2024)

What was measured:
Type in all cases: in vivo
[1] = system: pigweed (Amaranthus retroflexus); assay: Test A postemergence; details: Amaranthus retroflexus, post-emergence, 240 h, Postemergence; for pest or weed control at 125 g/ha: 125 g ai/ha, visual rating about 10 d after treatment, read-out: Pigweed plant response rating (0 to 100 scale); for pest or weed control at 500 g/ha: 500 g ai/ha, visual injury, 0 to 100 scale (0 no effect, 100 complete control), approx. 10 d, read-out: Plant response rating, Pigweed
In short: (§1)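 Visual injury scores from 0, no effect, to 100, complete control, were assigned versus untreated controls roughly 10 d after treatment in the greenhouse. Test chemicals, formulated with surfactant in a non-phytotoxic solvent, were applied to planted seeds as a preemergence soil spray or postemergence to one- to two-leaf plants 2 to 10 cm tall, in loam–sand soil.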

[2] = system: giant foxtail (Setaria faberii); assay: Test A postemergence; details: Setaria faberi, post-emergence, 240 h, Postemergence; for pest or weed control at 125 g/ha: 125 g ai/ha, visual rating about 10 d after treatment, read-out: Foxtail, Giant plant response rating (0 to 100 scale); for pest or weed control at 500 g/ha: 500 g ai/ha, visual injury, 0 to 100 scale (0 no effect, 100 complete control), approx. 10 d, read-out: Plant response rating, Foxtail, Giant
In short: as §1

[3] = system: pigweed (Amaranthus retroflexus); assay: Test A preemergence; details: Amaranthus retroflexus, pre-emergence, 240 h, 0 to 100 scale (0 no effect, 100 complete control), read-out: Plant response rating, Pigweed; for pest or weed control at 500 g/ha: 500 g ai/ha, preemergence; for pest or weed control at 125 g/ha: Preemergence, 125 g ai/ha
[4] = system: barnyardgrass (Echinochloa crus-galli); assay: Test A preemergence; details: Echinochloa crus-galli, pre-emergence, 240 h, 0 to 100 scale (0 no effect, 100 complete control), read-out: Plant response rating, Barnyardgrass; for pest or weed control at 500 g/ha: 500 g ai/ha, preemergence; for pest or weed control at 125 g/ha: Preemergence, 125 g ai/ha
In short: as §1

[5] = system: giant foxtail (Setaria faberii); assay: Test A preemergence; details: Setaria faberi, pre-emergence, 240 h, 0 to 100 scale (0 no effect, 100 complete control), read-out: Plant response rating, Foxtail, Giant; for pest or weed control at 500 g/ha: 500 g ai/ha, preemergence; for pest or weed control at 125 g/ha: Preemergence, 125 g ai/ha
In short: as §1

[6] = system: barnyardgrass (Echinochloa crus-galli); assay: Test B flooded paddy test; details: Echinochloa crus-galli, 360 h, Flood, 250 g ai/ha; visually evaluated after 13 to 15 d; read-out: Plant response rating, Barnyardgrass (0 to 100 scale where 0 is no effect and 100 is complete control)
In short: (§2)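 Compound goes directly into floodwater once pots are flooded 3 cm above soil, targeting plants at two leaves; the water depth is then held for the test duration. Plants sit 13–15 d in a greenhouse and are rated visually, 100 denoting complete control.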

[7] = system: ducksalad (Heteranthera limosa); assay: Test B flooded paddy test; details: Heteranthera limosa, 360 h, Flood, 250 g ai/ha; visually evaluated after 13 to 15 d; read-out: Plant response rating, Ducksalad (0 to 100 scale where 0 is no effect and 100 is complete control)
In short: as §2

rice (Oryra sativa) = assay: Test B flooded paddy test; details: Oryza sativa, 360 h, Flood, 250 g ai/ha; visually evaluated after 13 to 15 d; read-out: Plant response rating, Rice (0 to 100 scale where 0 is no effect and 100 is complete control)
In short: as §2

[8] = system: sedge, umbrella (small-flower umbrella sedge, Cyperus difformis); assay: Test B flooded paddy test; details: Cyperus difformis, 360 h, Flood, 250 g ai/ha; visually evaluated after 13 to 15 d; read-out: Plant response rating, Sedge, Umbrella (0 to 100 scale where 0 is no effect and 100 is complete control)
In short: as §2

N#Cc1ccc(NC(=O)C2C(=O)NCC2c2ccccc2)cc1 (centres unmarked) [Compound 1355]
0%: pest or weed control at 125 g/ha [1] | pest or weed control at 500 g/ha [1] | pest or weed control at 125 g/ha [2] | pest or weed control at 500 g/ha [2] | pest or weed control at 500 g/ha [3] | pest or weed control at 125 g/ha [3] | pest or weed control at 500 g/ha [4] | pest or weed control at 125 g/ha [4] | pest or weed control at 500 g/ha [5] | pest or weed control at 125 g/ha [5]

O=C1NCC(c2ccccc2)C1C(=O)Nc1cccnc1 (centres unmarked) [Compound 1356]
0%: pest or weed control at 125 g/ha [1] | pest or weed control at 500 g/ha [1] | pest or weed control at 125 g/ha [2] | pest or weed control at 500 g/ha [2] | pest or weed control at 500 g/ha [3] | pest or weed control at 125 g/ha [3] | pest or weed control at 500 g/ha [4] | pest or weed control at 125 g/ha [4] | pest or weed control at 500 g/ha [5] | pest or weed control at 125 g/ha [5]

O=C1NCC(c2ccccc2)C1C(=O)Nc1ccccc1Oc1ccccc1 (centres unmarked) [Compound 1357]
0%: pest or weed control at 125 g/ha [1] | pest or weed control at 500 g/ha [1] | pest or weed control at 125 g/ha [2] | pest or weed control at 500 g/ha [2] | pest or weed control at 500 g/ha [3] | pest or weed control at 125 g/ha [3] | pest or weed control at 500 g/ha [4] | pest or weed control at 125 g/ha [4] | pest or weed control at 500 g/ha [5] | pest or weed control at 125 g/ha [5]

O=C1NCC(c2ccccc2)C1C(=O)Nc1ccccc1 (centres unmarked) [Compound 1358]
0%: pest or weed control at 250 g/ha [6] | pest or weed control at 250 g/ha [7] | pest or weed control at 250 g/ha (rice (Oryra sativa)) | pest or weed control at 250 g/ha [8] | pest or weed control at 125 g/ha [1] | pest or weed control at 500 g/ha [1] | pest or weed control at 125 g/ha [2] | pest or weed control at 500 g/ha [2] | pest or weed control at 500 g/ha [3] | pest or weed control at 125 g/ha [3] | pest or weed control at 500 g/ha [4] | pest or weed control at 125 g/ha [4] | pest or weed control at 500 g/ha [5] | pest or weed control at 125 g/ha [5]
